Our source for the IC50 values is ChEMBL document CHEMBL4011581, “Interference with bile salt export pump function is a susceptibility factor for human liver injury in drug development” (Toxicol Sci, 2010).

As usually defined, the IC50 is the concentration needed to halve the response being measured.

Molecules are shown by their SMILES.

The target of the test is Bile salt export pump (Homo sapiens, UniProt O95342). In words: Inhibition of human BSEP expressed in fall armyworm sf9 cell plasma membrane vesicles assessed as reduction in vesicle-associated [3H]-taurocholate transport preincubated for 10 mins prior to ATP addition measured after 15 mins in presence of [3H]-taurocholate by topcount based membrane vesicle transport assay. Type of test: ADME.
As for `CN(C)CCCN1c2ccccc2Sc2ccc(Cl)cc21` [CHLORPROMAZINE], the IC50 was greater than 135 µM. `CCCNC(=O)NS(=O)(=O)c1ccc(Cl)cc1` [CHLORPROPAMIDE]: the IC50 was greater than 135 µM. With `CC1(COc2ccc(CC3SC(=O)NC3=O)cc2)CCCCC1` (stereo not drawn) [CIGLITAZONE] the figure was 37.8 µM; with `C(=C\c1ccccc1)/CN1CCN(C(c2ccccc2)c2ccccc2)CC1` [CINNARIZINE], 15.7 µM. On to `CC(C)(Oc1ccc(C2CC2(Cl)Cl)cc1)C(=O)O` (stereo not drawn) [CIPROFIBRATE], for which the concentration for half-maximal inhibition (IC50) was greater than 135 µM. In the case of `CC(C)/N=c1\cc2n(-c3ccc(Cl)cc3)c3ccccc3nc-2cc1Nc1ccc(Cl)cc1` [CLOFAZIMINE], the IC50 was found to be 12.9 µM. The figure for `CCOC(=O)C(C)(C)Oc1ccc(Cl)cc1` [CLOFIBRATE] is 60 to 75 µM; for `C[C@@H]1CCC[C@H](C)N1NC(=O)c1ccc(Cl)c(S(N)(=O)=O)c1` [CLOPAMIDE] it is greater than 135 µM. For the compound `CN1CCN(C2=Nc3cc(Cl)ccc3Nc3ccccc32)CC1` [CLOZAPINE], the IC50 is greater than 135 µM.

As for `O=P1(N(CCCl)CCCl)NCCCO1` (stereo not drawn) [CYCLOPHOSPHAMIDE ANHYDROUS], the IC50 is greater than 135 µM.

For `CNCCCN1c2ccccc2CCc2ccccc21` [DESIPRAMINE], the IC50 was greater than 135 µM. With `C[C@@H]1C[C@H]2[C@@H]3CCC4=CC(=O)C=C[C@]4(C)[C@@]3(F)[C@@H](O)C[C@]2(C)[C@@]1(O)C(=O)CO` [DEXAMETHASONE] the figure was greater than 135 µM; with `CN1C(=O)CN=C(c2ccccc2)c2cc(Cl)ccc21` [DIAZEPAM], greater than 135 µM. With `CC1=NS(=O)(=O)c2cc(Cl)ccc2N1` [DIAZOXIDE] the figure was greater than 135 µM; with `Cc1onc(-c2c(Cl)cccc2Cl)c1C(=O)N[C@@H]1C(=O)N2[C@@H]1SC(C)(C)[C@@H]2C(=O)O` [DICLOXACILLIN], 45 to 60 µM; with `CC(C)N(CCC(C(N)=O)(c1ccccc1)c1ccccn1)C(C)C` (stereo not drawn) [DISOPYRAMIDE], greater than 135 µM. `COc1cccc2c1C(=O)c1c(O)c3c(c(O)c1C2=O)C[C@@](O)(C(=O)CO)C[C@@H]3O[C@H]1C[C@H](N)[C@H](O)[C@H](C)O1` [DOXORUBICIN]: the IC50 was greater than 135 µM. The figure for `CCOc1ccc(/C=C2\NCCc3cc(OCC)c(OCC)cc32)cc1OCC` [DROTAVERINE] is 37 µM. With `CC[C@H]1CN2CCc3cc(OC)c(OC)cc3[C@@H]2C[C@@H]1C[C@H]1NCCc2cc(OC)c(OC)cc21` [EMETINE] the figure was greater than 135 µM. For `CCCCc1ncc(/C=C(\Cc2cccs2)C(=O)O)n1Cc1ccc(C(=O)O)cc1` [EPROSARTAN], the IC50 is greater than 135 µM. In the case of `CCC(=O)O[C@H]1[C@H](O[C@@H]2[C@@H](C)[C@H](O[C@H]3C[C@@](C)(OC)[C@@H](O)[C@H](C)O3)[C@@H](C)C(=O)O[C@H](CC)[C@@](C)(O)[C@H](O)[C@@H](C)C(=O)[C@H](C)C[C@@]2(C)O)O[C@H](C)C[C@@H]1N(C)C` [ERYTHROMYCIN ESTOLATE], the IC50 is 13 µM.

`Cc1ccc(-c2ncc(Cl)cc2-c2ccc(S(C)(=O)=O)cc2)cn1` [ETORICOXIB]: the IC50 was in the range of 45 to 60 µM. For the compound `NC(N)=Nc1nc(CSCCC(N)=NS(N)(=O)=O)cs1` [FAMOTIDINE], the IC50 was greater than 135 µM.

As for `CC(C)OC(=O)C(C)(C)Oc1ccc(C(=O)c2ccc(Cl)cc2)cc1` [FENOFIBRATE], the IC50 was 15.3 µM. With `CC(C)(C)NC(=O)[C@H]1CC[C@H]2[C@@H]3CC[C@H]4NC(=O)C=C[C@]4(C)[C@H]3CC[C@]12C` [FINASTERIDE] the figure was 28.2 µM; with `COc1ccc(Cl)cc1[C@]1(F)C(=O)Nc2cc(C(F)(F)F)ccc21` [FLINDOKALNER], greater than 135 µM. With `CCOC(=O)c1ncn2c1CN(C)C(=O)c1cc(F)ccc1-2` [FLUMAZENIL] the figure was greater than 135 µM. Consider `O=c1[nH]cc(F)c(=O)[nH]1` [FLUOROURACIL], for which the IC50 was greater than 135 µM. As to `CCOC(=O)Nc1ccc(NCc2ccc(F)cc2)nc1N` [FLUPIRTINE], the IC50 is 35.5 µM. With `NC[C@@H]1O[C@H](O[C@H]2[C@@H](O)[C@H](O[C@@H]3[C@@H](O)[C@H](N)C[C@H](N)[C@H]3O[C@H]3O[C@H](CN)[C@@H](O)[C@H](O)[C@H]3N)O[C@@H]2CO)[C@H](N)[C@@H](O)[C@@H]1O` [FRAMYCETIN] the figure was greater than 135 µM; with `CC(=O)O[C@H]1C[C@@]2(C)[C@@H](C[C@@H](O)[C@H]3[C@@]4(C)CC[C@@H](O)[C@@H](C)[C@@H]4CC[C@@]32C)/C1=C(\CCC=C(C)C)C(=O)O` [FUSIDIC ACID], 10.1 µM. On to `COc1ccc2c3c1O[C@H]1C[C@@H](O)C=C[C@@]31CCN(C)C2` [GALANTAMINE], for which the IC50 was greater than 135 µM. For `Nc1nc(O)c2ncn(COC(CO)CO)c2n1` [GANCICLOVIR], the IC50 is greater than 135 µM.

For the compound `Cc1ccc(C)c(OCCCC(C)(C)C(=O)O)c1` [GEMFIBROZIL], the IC50 was greater than 135 µM. Take `CCC1=C(C)CN(C(=O)NCCc2ccc(S(=O)(=O)NC(=O)N[C@H]3CC[C@H](C)CC3)cc2)C1=O` [GLIMEPIRIDE]: the IC50 worked out at 15.7 µM. The figure for `N=C(N)NC(=O)Cc1c(Cl)cccc1Cl` [GUANFACINE] is greater than 135 µM.

Regarding `CC(C)Cc1ccc(C(C)C(=O)O)cc1` (stereo not drawn) [IBUPROFEN], the IC50 is greater than 135 µM. The figure for `c1ccc2c(c1)OCC(C1=NCCN1)O2` (stereo not drawn) [IDAZOXAN] is greater than 135 µM; for `Cc1ccc(NC(=O)c2ccc(CN3CCN(C)CC3)cc2)cc1Nc1nccc(-c2cccnc2)n1` [IMATINIB] it is 25.1 µM. With `Nc1cc(-c2ccncc2)c[nH]c1=O` [INAMRINONE] the figure was greater than 135 µM; with `CC1Cc2ccccc2N1NC(=O)c1ccc(Cl)c(S(N)(=O)=O)c1` (stereo not drawn) [INDAPAMIDE], greater than 135 µM. As for `O=C(NC1CCN(CCc2c[nH]c3ccccc23)CC1)c1ccccc1` [INDORAMIN], the IC50 is greater than 135 µM.

In the case of `CC(C)NNC(=O)c1ccncc1` [IPRONIAZID], the IC50 is greater than 135 µM.

As for `NNC(=O)c1ccncc1` [ISONIAZID], the IC50 was greater than 135 µM.

In the case of `CCC(C)n1ncn(-c2ccc(N3CCN(c4ccc(OCC5COC(Cn6cncn6)(c6ccc(Cl)cc6Cl)O5)cc4)CC3)cc2)c1=O` (stereo not drawn) [ITRACONAZOLE], the IC50 was 18 µM.

With `NC[C@H]1O[C@H](O[C@H]2[C@H](O)[C@@H](O[C@H]3O[C@H](CO)[C@@H](O)[C@H](N)[C@H]3O)[C@H](N)C[C@@H]2N)[C@H](O)[C@@H](O)[C@@H]1O` [KANAMYCIN], the IC50 is greater than 135 µM.

On to `CNC1(c2ccccc2Cl)CCCCC1=O` (stereo not drawn) [KETAMINE], for which the IC50 is greater than 135 µM. Take `O=C(c1ccc(F)cc1)C1CCN(CCn2c(=O)[nH]c3ccccc3c2=O)CC1` [KETANSERIN]: the IC50 is greater than 135 µM. The figure for `Cc1c(OCC(F)(F)F)ccnc1C[S+]([O-])c1nc2ccccc2[nH]1` (stereo not drawn) [LANSOPRAZOLE] is greater than 135 µM; for `CS(=O)(=O)CCNCc1ccc(-c2ccc3ncnc(Nc4ccc(OCc5cccc(F)c5)c(Cl)c4)c3c2)o1` [LAPATINIB] it is 6.5 µM; for `Cc1cccc(C)c1OCC(=O)N[C@@H](Cc1ccccc1)[C@@H](O)C[C@H](Cc1ccccc1)NC(=O)[C@H](C(C)C)N1CCCNC1=O` [LOPINAVIR] it is 17.3 µM.

With `CN(Cc1cnc2nc(N)nc(N)c2n1)c1ccc(C(=O)N[C@@H](CCC(=O)O)C(=O)O)cc1` [METHOTREXATE], the IC50 is greater than 135 µM. Regarding `C[C@H]1C[C@@H]2[C@H]([C@@H](O)C[C@@]3(C)[C@H]2CC[C@]3(O)C(=O)CO)[C@@]2(C)C=CC(=O)C=C12` [METHYLPREDNISOLONE], the IC50 was greater than 135 µM.
